Test results: patent US9365584B2, “Thieno [2,3-B] pyridinedione activators of AMPK and therapeutic uses thereof” (Poxel, priority 2009, dated 2016)

tested on: AMPK; assay: AMPK enzyme activity assay (Delfia technology, AMARA peptide substrate); format: biochemical; conditions: compound at 30 μM vs AMP at 200 μM
Procedure, shortened: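 Value is the ratio of compound (30 μM) to AMP (200 μM) response, each as % of basal control. Phosphorylation of the AMARA peptide after AMPK addition was read by Delfia with an anti-phosphoserine antibody.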

Row | SMILES | Activity: Ratio between the % of control (basal activity) of compound of formula (1) at 30 μM and the % of control (basal activity) of AMP (natural substrate) at 200 μM
1 | CC1(c2ccc(S(C)(=O)=O)cc2)C(=O)Nc2sc(Cl)c(-c3cccc(F)c3)c2C1=O (centres unmarked) [No 149, 2-chloro-3-(3-fluorophenyl)-5-methyl-5-(4-methyl-sulfonylphenyl)-7H-thieno[2,3-b]pyridine-4,6-dione] | A (0%<A<50%)
2 | COc1ccc(C2(C)C(=O)Nc3sc(Cl)c(-c4ccc(C)cc4)c3C2=O)cc1 (centres unmarked) [No 150, 2-chloro-5-(4-methoxyphenyl)-5-methyl-3-(p-tolyl)-7H-thieno[2,3-b]pyridine-4,6-dione] | A (0%<A<50%)
3 | O=C1Nc2sc(Cl)c(-c3cc(F)ccc3OCc3ccccc3)c2C(=O)C1(F)c1ccccc1 (centres unmarked) [No 151, 3-(2-benzyloxy-5-fluoro-phenyl)-2-chloro-5-fluoro-5-phenyl-7H-thieno[2,3-b]pyridine-4,6-dione] | A (0%<A<50%)
4 | COc1ccc(OCc2ccccc2)c(-c2csc3c2C(=O)C(F)(c2ccccc2)C(=O)N3)c1 (centres unmarked) [No 152, 3-(2-benzyloxy-5-methoxy-phenyl)-5-fluoro-5-phenyl-7H-thieno[2,3-b]pyridine-4,6-dione] | B (50%≦B<75%)
5 | COc1ccc(-c2c(Cl)sc3c2C(=O)C(C)(c2ccccc2F)C(=O)N3)cc1 (centres unmarked) [No 153, 2-chloro-5-(2-fluorophenyl)-3-(4-methoxyphenyl)-5-methyl-7H-thieno[2,3-b]pyridine-4,6-dione] | A (0%<A<50%)
6 | O=C1Nc2sc(Cl)c(-c3cccc(F)c3)c2C(=O)C1(F)c1ccccc1 (centres unmarked) [No 157, 2-chloro-5-fluoro-3-(3-fluorophenyl)-5-phenyl-7H-thieno[2,3-b]pyridine-4,6-dione] | C (C≧75%)
7 | COc1cc(-c2csc3c2C(=O)C(F)(c2ccccc2)C(=O)N3)ccc1Br (centres unmarked) [No 159, 3-(4-bromo-3-methoxy-phenyl)-5-fluoro-5-phenyl-7H-thieno[2,3-b]pyridine-4,6-dione] | C (C≧75%)
8 | O=C1Nc2sc(F)c(-c3cccc(Br)c3)c2C(=O)C1(F)c1ccccc1 (centres unmarked) [No 164, 3-(3-bromophenyl)-2,5-difluoro-5-phenyl-7H-thieno[2,3-b]pyridine-4,6-dione] | C (C≧75%)
9 | O=C1Nc2scc(-c3ccc(Br)cc3)c2C(=O)C1(F)c1cccnc1 (centres unmarked) [No 166, 3-(4-bromophenyl)-5-fluoro-5-(3-pyridyl)-7H-thieno[2,3-b]pyridine-4,6-dione] | A (0%<A<50%)
10 | COc1ccc(C2(F)C(=O)Nc3scc(-c4ccccc4)c3C2=O)cc1 (centres unmarked) [No 167, 5-fluoro-5-(4-methoxyphenyl)-3-phenyl-7H-thieno[2,3-b]pyridine-4,6-dione] | A (0%<A<50%)
11 | COc1ccc(C2(F)C(=O)Nc3sc(Cl)c(-c4ccc(F)cc4O)c3C2=O)cc1 (centres unmarked) [No 169, 2-chloro-5-fluoro-3-(4-fluoro-2-hydroxy-phenyl)-5-(4-methoxyphenyl)-7H-thieno[2,3-b]pyridine-4,6-dione] | C (C≧75%)
12 | Cc1cccc(-c2c(Cl)sc3c2C(=O)C(C)(c2ccc(F)cc2)C(=O)N3)c1 (centres unmarked) [No 170, 2-chloro-5-(4-fluorophenyl)-5-methyl-3-(m-tolyl)-7H-thieno[2,3-b]pyridine-4,6-dione] | A (0%<A<50%)
13 | Cc1cccc(-c2c(Cl)sc3c2C(=O)C(C)(c2cccc(C)c2)C(=O)N3)c1 (centres unmarked) [No 171, 2-chloro-5-methyl-3,5-bis(m-tolyl)-7H-thieno[2,3-b]pyridine-4,6-dione] | A (0%<A<50%)
14 | O=C1Nc2scc(-c3ccc(Cl)cc3)c2C(=O)C1(F)c1ccccc1 (centres unmarked) [No 172, 3-(4-chlorophenyl)-5-fluoro-5-phenyl-7H-thieno[2,3-b]pyridine-4,6-dione] | B (50%≦B<75%)
15 | O=C1Nc2sc(F)c(-c3ccccc3F)c2C(=O)C1(F)c1ccccc1 (centres unmarked) [No 178, 2,5-difluoro-3-(2-fluorophenyl)-5-phenyl-7H-thieno[2,3-b]pyridine-4,6-dione] | B (50%≦B<75%)
16 | COc1cccc(C2(F)C(=O)Nc3scc(-c4ccccc4)c3C2=O)c1 (centres unmarked) [No 182, 5-fluoro-5-(3-methoxyphenyl)-3-phenyl-7H-thieno[2,3-b]pyridine-4,6-dione] | C (C≧75%)
17 | COc1cccc(C2(F)C(=O)Nc3sc(F)c(-c4ccccc4)c3C2=O)c1 (centres unmarked) [No 183, 2,5-difluoro-5-(3-methoxyphenyl)-3-phenyl-7H-thieno[2,3-b]pyridine-4,6-dione] | B (50%≦B<75%)

The next lines start with the values.

Row | Activity: Ratio between the % of control (basal activity) of compound of formula (1) at 30 μM and the % of control (basal activity) of AMP (natural substrate) at 200 μM | SMILES
18 | A (0%<A<50%) | COc1ccc(C2(C)C(=O)Nc3sc(Cl)c(-c4cccc(C)c4)c3C2=O)cc1 (centres unmarked) [No 155, 2-chloro-5-(4-methoxyphenyl)-5-methyl-3-(m-tolyl)-7H-thieno[2,3-b]pyridine-4,6-dione]
19 | A (0%<A<50%) | Cc1cccc(-c2c(Cl)sc3c2C(=O)C(C)(c2ccccc2F)C(=O)N3)c1 (centres unmarked) [No 156, 2-chloro-5-(2-fluorophenyl)-5-methyl-3-(m-tolyl)-7H-thieno[2,3-b]pyridine-4,6-dione]
20 | A (0%<A<50%) | Cc1cccc(-c2c(Cl)sc3c2C(=O)C(C)(c2cccc(F)c2)C(=O)N3)c1 (centres unmarked) [No 158, 2-chloro-5-(3-fluorophenyl)-5-methyl-3-(m-tolyl)-7H-thieno[2,3-b]pyridine-4,6-dione]
21 | B (50%≦B<75%) | COc1cc(-c2c(F)sc3c2C(=O)C(F)(c2ccccc2)C(=O)N3)ccc1Br (centres unmarked) [No 160, 3-(4-bromo-3-methoxy-phenyl)-2,5-difluoro-5-phenyl-7H-thieno[2,3-b]pyridine-4,6-dione]
22 | B (50%≦B<75%) | O=C1Nc2scc(-c3cccc(Br)c3)c2C(=O)C1(F)c1ccccc1 (centres unmarked) [No 163, 3-(3-bromophenyl)-5-fluoro-5-phenyl-7H-thieno[2,3-b]pyridine-4,6-dione]
23 | C (C≧75%) | COc1ccc(C2(F)C(=O)Nc3sc(F)c(-c4ccc(F)cc4)c3C2=O)cc1 (centres unmarked) [No 165, 2,5-difluoro-3-(4-fluorophenyl)-5-(4-methoxyphenyl)-7H-thieno[2,3-b]pyridine-4,6-dione]
24 | A (0%<A<50%) | COc1ccc(C2(F)C(=O)Nc3sc(F)c(-c4ccccc4)c3C2=O)cc1 (centres unmarked) [No 168, 2,5-difluoro-5-(4-methoxyphenyl)-3-phenyl-7H-thieno[2,3-b]pyridine-4,6-dione]
25 | B (50%≦B<75%) | O=C1Nc2sc(F)c(-c3ccc(Cl)cc3)c2C(=O)C1(F)c1ccccc1 (centres unmarked) [No 173, 3-(4-chlorophenyl)-2,5-difluoro-5-phenyl-7H-thieno[2,3-b]pyridine-4,6-dione]
26 | A (0%<A<50%) | O=C1Nc2scc(-c3ccc(F)cc3OCc3ccccc3)c2C(=O)C1(F)c1ccccc1 (centres unmarked) [No 174, 3-(2-benzyloxy-4-fluoro-phenyl)-5-fluoro-5-phenyl-7H-thieno[2,3-b]pyridine-4,6-dione]
27 | A (0%<A<50%) | O=C1Nc2sc(F)c(-c3ccc(F)cc3OCc3ccccc3)c2C(=O)C1(F)c1ccccc1 (centres unmarked) [No 175, 3-(2-benzyloxy-4-fluoro-phenyl)-2,5-difluoro-5-phenyl-7H-thieno[2,3-b]pyridine-4,6-dione]
28 | C (C≧75%) | Cc1cccc(C2(Cl)C(=O)Nc3sc(Cl)c(-c4ccc(F)cc4O)c3C2=O)c1 (centres unmarked) [No 176, 2,5-dichloro-3-(4-fluoro-2-hydroxy-phenyl)-5-(m-tolyl)-7H-thieno[2,3-b]pyridine-4,6-dione]
29 | A (0%<A<50%) | O=C1Nc2scc(-c3ccccc3F)c2C(=O)C1(F)c1ccccc1 (centres unmarked) [No 177, 5-fluoro-3-(2-fluorophenyl)-5-phenyl-7H-thieno[2,3-b]pyridine-4,6-dione]
30 | A (0%<A<50%) | O=C1Nc2scc(-c3ccc(F)cc3F)c2C(=O)C1(F)c1ccccc1 (centres unmarked) [No 179, 3-(2,4-difluorophenyl)-5-fluoro-5-phenyl-7H-thieno[2,3-b]pyridine-4,6-dione]
31 | A (0%<A<50%) | COc1ccccc1-c1csc2c1C(=O)C(F)(c1ccccc1)C(=O)N2 (centres unmarked) [No 180, 5-fluoro-3-(2-methoxyphenyl)-5-phenyl-7H-thieno[2,3-b]pyridine-4,6-dione]
32 | A (0%<A<50%) | COc1ccccc1-c1c(F)sc2c1C(=O)C(F)(c1ccccc1)C(=O)N2 (centres unmarked) [No 181, 2,5-difluoro-3-(2-methoxyphenyl)-5-phenyl-7H-thieno[2,3-b]pyridine-4,6-dione]
